Source: patent US12370235B2, “Synthetic, non-natural antimicrobial peptides inspired by Staphylococcus auricularis delta toxin” (University of Saskatchewan, priority 2021, dated 2025)
Ends that are not written are not given here.

Assays:
HeLa cells = format: cell-based; details: 24 h, alamarBlue
Description: Peptide cytotoxicity. In vitro cytotoxicity was measured using the 3D EpiDerm skin tissues and HeLa Cells using a fluorescent reporter of cell viability, alamarBlue (ThermoFisher Scientific). 3D EpiDerm skin tissues (MatTek EPI-200-AFAB) were transferred to a 12 well plate containing 600 μL of AFAB-assay medium supplemented with 10% v/v alamarBlue. […] HeLa cells were seeded in a 96-well plate (2×10^4 cells/per well) and incubated overnight at 37° C. and 5% CO2 in a humidified incubator to prepare wells at ˜50% confluency of adherent cells. After the incubation, spent DMEM was removed and cells were washed with PBS. alamarBlue-containing medium was prepared by mixing Phenol Red-free DMEM with alamarBlue solution at a 9:1 ratio and a 180 μl volume was added to each well. Cells were treated with peptides varying from 3.25 to 200 μg/mL and then incubated for 24 h. The fluorescence intensities of treated cultures were normalized to values measured for an untreated control group. After the 24 h incubation period, alamarBlue fluorescence was measured at 590 nm upon excitation at 560 nm using Varioskan Lux plate reader (Thermo Scientific) plate reader.

[1] = tested on: S. pseudintermedius canine isolate MRSP16; experiment: MIC, broth dilution; format: cell-based, Staphylococcus pseudintermedius
Description: (§1) MIC determination. MICs were measured using peptides with 95% purity. For bacterial studies, cation-adjusted Mueller Hinton (MH) broth was used as the growth medium whereas Yeast Peptone Dextrose (YPD; 10 g/L yeast extract, 20 g/L peptone, 20 g/L dextrose) was used for Candida spp. and other yeast. Microorganisms were diluted to an optical density of […] in MH or YPD broth and a 180 μl volume was mixed with 20 μl of peptide arrayed as a 2-fold dilution series in a flat-bottom 96-well microtitre plate. A control was performed using 20 μl of sterile water. Plates were incubated as standing cultures overnight at 37° C.
(§2) Determination of minimum inhibitory concentrations. The MICs were measured for bioactive peptides identified from the initial screen. For bacterial studies, cation-adjusted Mueller Hinton (MH) broth was used as the growth medium whereas YPD was used for C. albicans. Bacterial cultures were diluted to a OD value of 6×10^−4 in MH broth and a 180 μl volume was mixed with 20 μl of peptide arrayed as 2-fold dilution series in a 96-well plate. For the positive control, 20 μl of sterile water was used. Plates were incubated as standing cultures overnight at 37° C. The lowest peptide concentration that resulted no observed microbial growth after an overnight treatment was defined as the MIC.

[2] = tested on: S. pseudintermedius human isolate SPC020 (MSSR); experiment: MIC, broth dilution; format: cell-based, Staphylococcus pseudintermedius
Description: as §1, §2

[3] = tested on: S. pseudintermedius human isolate SPC001 (MSSP); experiment: MIC, broth dilution; format: cell-based, Staphylococcus pseudintermedius
Description: as §1, §2

[4] = tested on: S. pseudintermedius canine isolate MRSP24; experiment: MIC, broth dilution; format: cell-based, Staphylococcus pseudintermedius
Description: as §1, §2

[5] = tested on: S. pseudintermedius canine isolate MSSP42; experiment: MIC, broth dilution; format: cell-based, Staphylococcus pseudintermedius
Description: as §1, §2

[6] = tested on: S. pseudintermedius human isolate SPC002 (MSSP); experiment: MIC, broth dilution; format: cell-based, Staphylococcus pseudintermedius
Description: as §1, §2

MRSA ATCC 33592 = experiment: DiSC3(5) membrane polarization assay; format: cell-based, Staphylococcus aureus; details: 1.56 to 25 μg/mL
Description: Membrane disruption and depolarization are commonly reported mechanisms of AMP action. Two indirect assays that rely on fluorescent dyes were employed to assess the interaction of STIP3-29 and D-STIP3-29 with bacterial membranes. First, changes to SYTOX fluorescence was measured when MRSA ATCC 33592 was treated with increasing peptide concentrations ranging from one fourth to four-fold the MIC. […] Next, DiSC3(5), a cationic dye that binds to polarized membranes was used to report on possible depolarization related to AMP treatment. […] Thus, without wishing to be bound by theory, a more conservative explanation of the results is that the cationic peptides increase membrane permeability to SYTOX and that the like-charge of the AMPs to the reporter of polarization may confound the interpretation of the indirect assay. For example, the AMPs may simply displace the self-quenching DiSC3(5) molecules from the membrane surface without causing depolarization.

C. albicans Y537 = experiment: MIC, YPD broth; format: cell-based, Candida albicans; details: Table 8
C. albicans MYA-2876 = experiment: MIC, YPD broth; format: cell-based, Candida albicans; details: Table 8
In short: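 Minimum inhibitory concentrations against Candida albicans were determined in YPD broth (10 g/L yeast extract, 20 g/L peptone, 20 g/L dextrose) using peptides of 95% purity. A 180 μl volume of diluted yeast was combined with 20 μl of peptide in a 2-fold dilution series in 96-well plates, with sterile water as control, then incubated standing overnight at 37° C.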

panel of 7 MRSA strains = format: cell-based, Staphylococcus aureus
Description: The antibiotic effect of STIP3-29 was bactericidal (FIG. 3). […] Some proportion of bacterial cells escaped treatment, remaining dormant. Indeed, strain-dependent persister cells, capable of escaping a variety of therapeutic agents, have been described for S. aureus^47.
Measurement of bactericidal activity. […] For S. aureus, an overnight culture was diluted to an OD of 5×10^−7 in 2 ml of MH broth supplemented with the appropriate concentration of peptide. Sterile water was added to control cultures. Standing cultures were incubated at 37° C. and 100 μl volume aliquots were removed at 60 min time intervals for 8 h. These aliquots were plated on agar plates to measure the colony forming units (CFUs) that remained viable upon treatment. Control aliquots from the same time intervals were diluted before plating to accurately enumerate increasing CFU counts. Counts were performed from plates that were incubated at 37° C. overnight. A plot of CFU/ml against time was used to illustrate and evaluate the time dependent killing. The same procedure was followed for C. albicans except that YPD broth and a cultivation temperature of 30° C. was employed.

[7] = Circular dichroism spectroscopy; format: physicochemical; details: CD, 50% (v/v) TFE
In short: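 Secondary structure of peptides dissolved in water at 0.3–0.5 mg/mL was assessed by CD. Spectra were recorded from 180 to 260 nm at room temperature in a 0.1 cm quartz cuvette; water and 50% (v/v) TFE conditions were compared.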

In the case of “TVGGLVKWILKTVKKFA-NH2 [STIP3-29, TVGGLVKWILKTVKKFA-NH2]”, the “IC50, HeLa cell survival” value (HeLa cells) is reported as 56 ± 1 µg/mL, the “MIC” value [1] is reported as 3.13 µg/mL and the “MIC” value [2] is reported as 3.13 µg/mL. For the same substance, the “MIC” value [3] was 3.13 µg/mL, the “MIC” value [4] was 3.13 µg/mL and the “MIC” value [5] was 3.13 µg/mL. The “MIC” value [6] was 3.13 µg/mL, the “DiSC3(5) fluorescence change” value (MRSA ATCC 33592) was “dose-dependent increase in fluorescence” and the “MIC C. albicans Y537” value (C. albicans Y537) was 25 µg/mL. For the same substance, the “MIC C. albicans MYA-2876” value (C. albicans MYA-2876) was 12.5 µg/mL, the treated bacteria killed (panel of 7 MRSA strains; 12.5 μg/mL (2-fold MIC), within the first 4 hours, panel of 7 MRSA strains) was about 99% and the antibiotic effect (panel of 7 MRSA strains; in words) was “bactericidal”. The “α helicity (%)” value [7] was 61%.
